The source made the active and inactive calls. No rule for the calls is given here.
These compounds were tested against Microphthalmia-associated transcription factor (Homo sapiens) (UniProt O75030) (assay: MITF inhibitors by FRET titration, dose response, biochemical, high throughput (AID 1259375;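 also: FRET between CFP-tagged and YFP-tagged MITF protein partners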)). Conditions: FRET biochemical assay, MITF inhibition.
Microphthalmia-associated transcription factor (Homo sapiens), sequence (O75030 whole entry, looked up): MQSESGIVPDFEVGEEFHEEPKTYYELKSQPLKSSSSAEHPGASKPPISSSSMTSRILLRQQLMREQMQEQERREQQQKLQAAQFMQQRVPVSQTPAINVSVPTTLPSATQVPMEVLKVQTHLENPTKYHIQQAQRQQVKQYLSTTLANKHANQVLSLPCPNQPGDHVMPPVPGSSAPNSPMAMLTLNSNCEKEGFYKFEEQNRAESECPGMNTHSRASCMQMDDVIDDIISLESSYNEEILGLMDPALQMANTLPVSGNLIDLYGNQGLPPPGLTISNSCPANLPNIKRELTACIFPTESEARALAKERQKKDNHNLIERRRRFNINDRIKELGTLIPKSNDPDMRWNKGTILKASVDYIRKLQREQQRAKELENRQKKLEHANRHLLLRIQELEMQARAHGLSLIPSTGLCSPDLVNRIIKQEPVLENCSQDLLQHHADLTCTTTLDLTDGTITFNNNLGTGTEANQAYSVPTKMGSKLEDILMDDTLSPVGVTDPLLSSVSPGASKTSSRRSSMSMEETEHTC

| SMILES | IC50 |
| --- | --- |
| O=C(NCc1ccccc1)N1CCN2C(=O)[C@H]3CCCN3C(=O)[C@H]2C1 | > 6.48 µM (inactive) |
| CC1=NN(c2ccc(C(=O)O)c(N)c2)C(=O)C1 | > 6.48 µM (inactive) |
| Nc1cc(Br)cnc1N | > 8.62 µM (inactive) |
| O=C(O)c1cccc(-n2cccc2/C=C\[N+](=O)[O-])c1 | > 6.48 µM (inactive) |
| O=C1c2c(O)cccc2Cc2cccc(O)c21 | > 6.48 µM (inactive) |
| O=C(/C=C/c1ccco1)NCCCCNC(=O)/C=C/c1ccco1 | > 6.48 µM (inactive) |
| CCCOc1ccc(N)cc1N | > 6.22 µM (inactive) |
| O=C(O)c1ccc(-n2cccc2)cc1Cl | > 6.48 µM (inactive) |
| C=CCc1cc(Cl)ccc1OCCOCCNCCOC | > 6.48 µM (inactive) |
| Clc1ccc(CN2CCN(Cc3c[nH]c4ccccc34)CC2)cc1 | > 5.86 µM (inactive) |
| CCN1CCN(Cc2coc3ccccc3c2=O)CC1 | > 6.48 µM (inactive) |
| O=C(/C=C/c1ccco1)C1=C(O)C(=O)N(CCCN2CCOCC2)C1c1ccco1 (stereo not given) | > 6.48 µM (inactive) |
| O=C(NCCc1ccc(O)cc1)c1ccnc(-c2cccs2)c1 | > 6.77 µM (inactive) |
| O=C(CN1C(=O)NC2(CCCCCC2)C1=O)NC(=O)NCc1ccco1 | > 7.16 µM (inactive) |
| N#C/C(=C\c1nn(-c2ccccc2)c(N)c1C#N)c1ccco1 | > 6.48 µM (inactive) |
| Cc1c(NC(=S)NC(=O)/C=C/c2ccco2)cccc1C(=O)O | 3.78 µM |
| O=C1N[C@H](Cc2ccc(O)cc2)C(=O)N2CCN(C(=O)NC3CCCCC3)C[C@H]12 | > 6.48 µM (inactive) |
| COc1cccc(CN2CCC(CNc3ccc(-c4ccncc4)cc3)C2)c1 (stereo not given) | > 6.48 µM (inactive) |
| O=C(O)c1ccc(NC2OC(CO)C(O)C2O)cc1 (stereo not given) | > 5.62 µM (inactive) |
| O=C(/C=C/c1ccco1)NC(=S)Nc1cc(C(=O)O)ccc1Cl | 3.33 µM |

| SMILES | IC50 |
| --- | --- |
| Cc1ccc2[nH]c(=O)c(=O)[nH]c2c1 | > 12.1 µM (inactive) |
| O=c1c2ccccc2nc(-c2ccccc2)n1-c1ccccc1O | > 6.5 µM (inactive) |
| C/C(=N\Nc1ccc(S(=O)(=O)O)cc1)c1cccc(Br)c1 | > 6.48 µM (inactive) |
| N/C(=N\[N+](=O)[O-])N/N=C\c1ccc(-c2ccc(O)c(C(=O)O)c2)o1 | 4.95 µM |
| O=C(NCC(c1cccs1)S(=O)(=O)c1ccc(Cl)cc1)c1ccco1 (stereo not given) | > 6.55 µM (inactive) |
| Cc1ccc(C)n1C(CC(=O)O)c1ccsc1 (stereo not given) | > 6.76 µM (inactive) |
| CC[C@H](C)[C@@H]1NC(=O)[C@H]2CN(C(=O)NC3CCCCC3)CCN2C1=O | > 6.48 µM (inactive) |
| Cn1c(SCc2cc(=O)n3c(n2)sc2ccccc23)nnc1C(F)(F)F | > 7.18 µM (inactive) |
| NC(=O)COC(=O)c1cc2c(s1)CCC2 | > 6.91 µM (inactive) |
| CCOC1=CC(c2ccc3c(c2)OCO3)CC(=O)c2c(C)oc(C)c21 (stereo not given) | > 6.48 µM (inactive) |
| COc1ccc(CC2NCCc3cc(OC)c(OC)cc32)cc1OC (stereo not given) | 0.925 µM |
| CC(C)[C@@H]1NC(=O)[C@H]2CN(C(=O)NC3CCCCC3)CCN2C1=O | > 6.48 µM (inactive) |
| CN(C)C(=O)N1CCN(S(=O)(=O)c2cccc([N+](=O)[O-])c2)CC1 | > 6.48 µM (inactive) |
| CN1CC[C@H](Oc2cc(-c3cn[nH]c3)ccc2NC(=O)OCc2ccccc2)C1 | > 6.48 µM (inactive) |
| CN(C)[C@@H]1C(=O)C(C(=O)NCN2CCCC2)=C(O)[C@@]2(O)C(=O)C3=C(O)c4c(O)cccc4[C@@](C)(O)[C@H]3C[C@@H]12 | > 6.48 µM (inactive) |
| COC(=O)CSc1nnc(-c2cnccn2)n1C | > 6.48 µM (inactive) |
| C/C(=N\NC(=O)CC1=NNC(=O)C1)c1ccco1 | > 6.48 µM (inactive) |
| Nc1cc2c(S(=O)(=O)O)cc(S(=O)(=O)O)cc2cc1S(=O)(=O)O | > 6.48 µM (inactive) |
| Cn1nnc(-c2ccc(Nc3nccc(-c4ccc5nc(C6CC6)[nH]c(=O)c5c4)n3)cc2)n1 | > 6.48 µM (inactive) |
| NC(=O)NC(=O)COC(=O)c1c2c(nc3ccccc13)/C(=C\c1ccco1)CCC2 | > 7.04 µM (inactive) |

— PubChem BioAssay AID1259375 (The Scripps Research Institute Molecular Screening Center, 2018)
